Measurements: patent US20140356383A1, “ADMINISTRATION OF AN ANTI-GCC ANTIBODY-DRUG CONJUGATE AND A DNA DAMAGING AGENT IN THE TREATMENT OF CANCER” (priority 2013, published 2014)
Square brackets hold non-standard residues; d marks the D form. Peptide text beside a SMILES is read from it. * marks the point of attachment. Dolaproine = CO[C@@H]([C@@H]1CCCN1)[C@@H](C)C(=O)O; Dil = CC[C@H](C)[C@H](NC)[C@@H](CC(=O)O)OC; X1 = C[C@@H](N*)[C@@H](O)c1ccccc1; NMeV = CN[C@H](C(=O)O)C(C)C

Tests used:
[1] = tested on: PHTX-21c s.c. xenograft; test: MLN0264 and 5-Fluorouracil in PHTX-21C s.c. xenografts (Study CPGC-11-EF01); type: in vivo, CB-17 SCID mice; details: for dAUC: 4 days off, reference vehicle
Description: (§1) Tumor volume was calculated using the formula: […]

[2] = Free-MMAE levels in serum vs. tumor after 5F9 vcMMAE; type: in vivo, mice; set-up: AUCinf Serum / AUCinf Tumor: concentration or dose not given beside the values; details: for AUCinf Serum / AUCinf Tumor: free MMAE after 5F9 vcMMAE; for Tumor/Serum: ratio of MMAE AUCinf
Description: Thus, the 5F9 vcMMAE immunoconjugate was confirmed to bind to GCC in the refractory PHTX-11c model. Free-MMAE levels in serum vs. tumor were also assessed to ensure the 5F9 vcMMAE immunoconjugate was being processed by the tumors (i.e., that the immunoconjugate was being internalized and that MMAE was being cleaved). A comparison of free-MMAE serum and tumor levels in the MMAE-refractory PHTX-11c model and the sensitive PHTX-09c and HEK293 GCC #2 models is shown Table 27 below. The presence of drug was confirmed within the tumors during dosing and post-dosing. Additionally, the free-MMAE levels in this tumor model were the same as the levels seen in tumor xenograft models that were sensitive to the immunoconjugate.

[3] = tested on: PHTX-9c primary human colon tumor xenograft; test: Single agent antitumor activity in PHTX-9c (PHTX-09c) primary human colon tumor xenograft
Description: Female CB-17 SCID mice (eight weeks old) were inoculated subcutaneously (SC) into the flank with PHTX-9c tumor fragments (2 mm×2 mm). Tumor growth was monitored twice per week using vernier calipers and the mean tumor volume was calculated using the formula (0.5×[length×width^2]). When the mean tumor volume reached approximately 150 mm^3 (Study A) or 160 mm^3 (Study B), animals were randomized into treatment groups (n=10/group for Study A and n=9/group for Study B).
Doses were administered on Days 1, 8, and 15 for the QW schedule and Days 1, 4, 8, 11, 15, and 18 for the BIW schedule. […] The equivalent dose of linker+MMAE is 4% of the 5F9-vcMMAE dose. These calculations are based on a mean 3.9 MMAE molecules per antibody and a free antibody molecular weight of 150 kD. Actual antibody molecular weight will vary slightly due to degree of glycosylation.
Tumor volume and body weight were measured twice weekly and were continued beyond the treatment period to measure regrowth kinetics, as evidenced by tumor growth delay (TGD). Tumor volume measurements were continued until tumor volume reached 10% of the body weight in a single mouse within a treatment group, at which time the group was terminated. The percentage of tumor growth inhibition (TGI) ([mean tumor volume of the control group—mean tumor volume of a treated group]/mean tumor volume of the control group; a T/C ratio) was determined on Day 20. The T/C ratios across a treatment group were compared to the T/C ratios of the control group using a two-tailed Welch's t-test.
The differences in the tumor growth trends over time between pairs of treatment groups were assessed using linear mixed effects regression models. These models account for the fact that each animal was measured at multiple time points. A separate model was fit for each comparison, and the areas under the curve (AUC) for each treatment group were calculated using the predicted values from the model. The percent decrease in AUC (dAUC) relative to the reference group was then calculated.
The 5F9 vcMMAE immunoconjugate was tested for single agent anti-tumor activity in the four primary human tumor xengraft models at varying concentrations in order to explore whether GCC expression levels played a role in tumor sensitivity. […] Free-MMAE was also used as a negative control.

[4] = tested on: 293 GCC#2 tumors; test: Efficacy study with auristatin conjugates in 293 GCC#2 tumors, q7d×4; type: in vivo, SCID mice; set-up: TGI / TGD: unit not given here; details: 300 μg/kg iv q7d×4
Description: 293 GCC#2 tumor-bearing SCID mice were treated with 5F9 conjugates with vc MMAE, vcMMAF or mcMMAF at three doses in comparison with 209 conjugates of these toxins or with free toxins or vehicle control. Doses were administered iv on a q7d×4 schedule. Tumors were harvested at days 3, 7, 10, 13 and 17. […] Table 18 provides a summary of the results (TGI=tumor growth inhibition, T/C=treatment/control, TGD=tumor growth delay, CR/PR=complete response/partial response; p value=measure to judge statistical significance, NS=not significant).

[5] = tested on: PHTX-249 Pa s.c. xenograft; test: 5F9 vcMMAE and gemcitabine in PHTX-249 Pa s.c. xenografts (Study CPGC-13-EF05); type: in vivo, CB-17 SCID mice; details: reference vehicle
Description: (§2) Day D0 was the first day of treatment.
as §1
(§3) A negative dAUC is interpreted as an increase in AUC relative to the reference. It is important to evaluate not only the P value, but also the dAUC. Comparisons with significant P values, but small dAUC values, may not be of interest.

[6] = tested on: PHTX-215 Pa s.c. xenograft; test: 5F9 vcMMAE and gemcitabine in PHTX-215 Pa s.c. xenografts (Study CPGC-13-EF10); type: in vivo, CB-17 SCID mice; details: for dAUC (percent decrease in treatment AUC relative to reference group V, vehicle): PHTX-215 Pa s.c. xenograft, CB-17 SCID mice
Description: as §2, §1
Table 77A the annotation table for group symbols. […] A negative dAUC is interpreted as an increase in AUC relative to the reference. It is important to evaluate not only the P value, but also the dAUC. Comparisons with significant P values, but small dAUC values, may not be of interest.

[7] = tested on: PHTX-249 Pa s.c. xenograft; test: 5F9 vcMMAE and gemcitabine in PHTX-249 Pa s.c. xenografts (Study CPGC-13-EF08); type: in vivo, CB-17 SCID mice; details: for dAUC: reference vehicle
Description: 264.4 ul stock Gemcitabine into 3135.6 ul NS.
as §2, §1, §3

[8] = Study A, 0.075 mg/kg IV QW × 3 doses
[9] = Study A, 0.15 mg/kg IV QW × 3 doses
[10] = Study B, 0.135 mg/kg IV QW × 3 doses
[11] = Study B, 0.18 mg/kg IV QW × 3 doses
[12] = PHTX-215 Pa, immunoconjugate plus gemcitabine 15 mg/kg on days 1 and 3, or single agent gemcitabine

O=c1[nH]cc(F)c(=O)[nH]1 [5-FU, 5-Fluorouracil, reference compound]
single agent anti-tumor activity ([1]; PHTX-21c, 15 mg/kg and 25 mg/kg, 3 day on/4 day off): relatively low anti-tumor activity | dAUC ([1]; group E: 5-Fu 15 mg/kg 3 days on): 44.1% | dAUC ([1]; group F: 5-Fu 25 mg/kg 3 days on): 52.6%

CC[C@H](C)[C@@H]([C@@H](CC(=O)N1CCC[C@H]1[C@H](OC)[C@@H](C)C(=O)N[C@H](C)[C@@H](O)c1ccccc1)OC)N(C)C(=O)[C@@H](NC(=O)[C@@H](NC)C(C)C)C(C)C [MMAE, monomethyl auristatin E, reference compound] (H-[NMeV]V[Dil][Dolaproine]-X1)
AUCinf Serum ([2]; 293 GCC #2 model): 56.3 ng·h/mL | AUCinf Tumor ([2]; 293 GCC #2 model): 24953 ng·h/mL | AUCinf Serum ([2]; PHTX-9C model): 68.3 ng·h/mL | AUCinf Tumor ([2]; PHTX-9C model): 8670 ng·h/mL | AUCinf Serum ([2]; PHTX-11C model): 44.1 ng·h/mL | AUCinf Tumor ([2]; PHTX-11C model): 13400 ng·h/mL | Tumor/Serum ([2]; 293 GCC #2 model): 443 | Tumor/Serum ([2]; PHTX-9C model): 127 | Tumor/Serum ([2]; PHTX-11C model): 304 | BW change (mean maximum percent) [3, 8]: 8.3% | TGD [3, 8]: 1.0 days | BW change (mean maximum percent) [3, 9]: 10.8% | TGD [3, 9]: 2.0 days | BW change (mean maximum percent) [3, 10]: 9.3% | TGD [3, 10]: 0.2 days | BW change (mean maximum percent) [3, 11]: −2.3% | TGD [3, 11]: 8.6 days | TGI ([3]; Study B, 0.18 mg/kg IV QW × 3 doses, Day 20, 0.18 mg/kg): 50.4 (p > 0.001) % | greatest maximum body weight loss during treatment period ([3]; Study B, day 7, 0.18 mg/kg MMAE group and 0.938 mg/kg 5F9-vcMMAE group): 2.3% | TGI [4]: 35.6 | CR/PR ([4]; complete response/partial response): 0 | T/C ([4]; treatment/control): 0.64 | TGD ([4]; tumor growth delay): 2

Nc1ccn([C@@H]2O[C@H](CO)[C@@H](O)C2(F)F)c(=O)n1 [gemcitabine]
dAUC ([5]; group B: Gemcitabine 15 mg/kg BIW): 46.0% | dAUC ([5]; group C: Gemcitabine 20 mg/kg BIW): 46.7% | TGI [6, 12]: 69% | tumor growth delay [6, 12]: 22.7 days | tumor regressions (animals) [6, 12]: no tumor regressions | dAUC (percent decrease in treatment AUC relative to reference group V, vehicle) ([6]; group C: Gemcitabine 15 mg/kg IV D1,D3/week x3): 61.0% | dAUC (percent decrease in treatment AUC relative to reference group V, vehicle) ([6]; group F: Gemcitabine 20 mg/kg IV BIW): 65.2% | tumor regressions (animals) ([7]; PHTX-249 Pa (Studies CPGC-13-EF05/EF08), 5F9 vcMMAE 7.5 mg/kg, gemcitabine 15 mg/kg on days 1 and 3, alone or combined): no tumor regressions | tumor growth delay ([7]; PHTX-249 Pa, 5F9 vcMMAE plus gemcitabine 15 mg/kg on days 1 and 3 vs single agent): 17 days | dAUC ([7]; group D: Gemcitabine 15 mg/kg BIW): 52.4% | dAUC ([7]; group E: Gemcitabine 15 mg/kg D1,D3/week): 76.9%
